From patent US20080090734A1, “DRUG SCREENING AND TARGET IDENTIFICATION USING SPR IMAGING OF TARGET PROTEIN ARRAYS” (The Trustees of California State University, priority 2006, published 2008)

How the values were obtained:
Test in all cases: Antibiotic susceptibility profile
Type in all cases: cell-based, Acinetobacter baumannii
Parameters in all cases: key: Resistance; Intermediate; Susceptible
[1] = system: A. baumannii clinical isolate NY D
Source text: (§1) We obtained over thirty clinical isolates of A. baumannii from nosocomial infections in New York City and Los Angeles. […] Only antibiotics with breakpoints for A. baumannii were used. […] Isolates LA 01 to 20 were acquired from Los Angels County while NY-A to NY-H were obtained from New York City.
(§2) Antibiotic susceptibility profiles of clinical isolates of A. baumannii and reference strains. R, I, and S denote Resistance, Intermediate and Susceptible, respectively. Genetic Profiling of Clinical Isolates of A. baumannii

[2] = system: A. baumannii clinical isolate LAC 13
Source text: as §1, §2

[3] = system: A. baumannii clinical isolate LAC 11
Source text: as §1, §2

[4] = system: A. baumannii clinical isolate LAC 18
Source text: as §1, §2

[5] = system: A. baumannii reference strain AYE
Source text: as §1, §2

[6] = system: A. baumannii clinical isolate LAC 14
Source text: as §1, §2

[7] = system: A. baumannii clinical isolate LAC 02
Source text: as §1, §2

[8] = system: A. baumannii clinical isolate LAC 01
Source text: as §1, §2

[9] = system: A. baumannii clinical isolate LAC 05
Source text: as §1, §2

[10] = system: A. baumannii clinical isolate NY C
Source text: as §1, §2

[11] = system: A. baumannii clinical isolate LAC 10
Source text: as §1, §2

[12] = system: A. baumannii clinical isolate NY F
Source text: as §1, §2

[13] = system: A. baumannii reference strain 17978; conditions: strain 17978 (ATCC)
Source text: as §1, §2

[14] = system: A. baumannii clinical isolate LAC 08
Source text: as §1, §2

[15] = system: A. baumannii clinical isolate LAC 16
Source text: as §1, §2

[16] = system: A. baumannii clinical isolate NY G
Source text: as §1, §2

[17] = system: A. baumannii reference strain 19606; conditions: strain 19606 (ATCC)
Source text: as §1, §2

[18] = system: A. baumannii clinical isolate LAC 06
Source text: as §1, §2

[19] = system: A. baumannii clinical isolate LAC 03
Source text: as §1, §2

[20] = system: A. baumannii clinical isolate LAC 20
Source text: as §1, §2

[21] = system: A. baumannii clinical isolate NY E
Source text: as §1, §2

[22] = system: A. baumannii clinical isolate LAC 04
Source text: as §1, §2

[23] = system: A. baumannii clinical isolate LAC 19
Source text: as §1, §2

[24] = system: A. baumannii clinical isolate LAC 07
Source text: as §1, §2

[25] = system: A. baumannii clinical isolate NY B
Source text: as §1, §2

[26] = system: A. baumannii clinical isolate LAC 17
Source text: as §1, §2

[27] = system: A. baumannii clinical isolate LAC 12
Source text: as §1, §2

[28] = system: A. baumannii clinical isolate NY A
Source text: as §1, §2

[29] = system: A. baumannii clinical isolate LAC 09
Source text: as §1, §2

[30] = system: A. baumannii clinical isolate NY H
Source text: as §1, §2

[31] = system: A. baumannii clinical isolate LAC 15
Source text: as §1, §2

[32] = system: A. baumannii reference strain 15839; conditions: strain 15839 (ATCC)
Source text: as §1, §2

[33] = system: A. baumannii reference strain SDF
Source text: as §1, §2

| SMILES | Antibiotic susceptibility [1] | Antibiotic susceptibility [2] | Antibiotic susceptibility [3] | Antibiotic susceptibility [4] | Antibiotic susceptibility [5] | Antibiotic susceptibility [6] | Antibiotic susceptibility [7] | Antibiotic susceptibility [8] | Antibiotic susceptibility [9] | Antibiotic susceptibility [10] | Antibiotic susceptibility [11] | Antibiotic susceptibility [12] | Antibiotic susceptibility [13] | Antibiotic susceptibility [14] | Antibiotic susceptibility [15] | Antibiotic susceptibility [16] | Antibiotic susceptibility [17] | Antibiotic susceptibility [18] | Antibiotic susceptibility [19] | Antibiotic susceptibility [20] | further results |
| --- | --- | --- | --- | --- | --- | --- | --- | --- | --- | --- | --- | --- | --- | --- | --- | --- | --- | --- | --- | --- | --- |
| CC(C)(O/N=C(\C(=O)N[C@@H]1C(=O)N2C(C(=O)[O-])=C(C[n+]3ccccc3)CS[C@H]12)c1csc(N)n1)C(=O)O [CAZ, Ceftazidime] | R | R | R | R | R | R | R | R | I | R | R | R | S | I | R | R | S | S | R | R | Antibiotic susceptibility [21]: R; Antibiotic susceptibility [22]: R; Antibiotic susceptibility [23]: R; Antibiotic susceptibility [24]: R; Antibiotic susceptibility [25]: R; Antibiotic susceptibility [26]: R; Antibiotic susceptibility [27]: R; Antibiotic susceptibility [28]: R; Antibiotic susceptibility [29]: R; Antibiotic susceptibility [30]: R; Antibiotic susceptibility [31]: R; Antibiotic susceptibility [32]: R; Antibiotic susceptibility [33]: S |
| CO/N=C(\C(=O)N[C@@H]1C(=O)N2C(C(=O)O)=C(CSc3nc(=O)c(=O)[nH]n3C)CS[C@H]12)c1csc(N)n1 [CRO, Ceftriaxone] | R | R | R | R | R | R | R | R | I | R | R | R | S | I | R | R | I | R | R | R | Antibiotic susceptibility [21]: I; Antibiotic susceptibility [22]: R; Antibiotic susceptibility [23]: R; Antibiotic susceptibility [24]: R; Antibiotic susceptibility [25]: R; Antibiotic susceptibility [26]: R; Antibiotic susceptibility [27]: R; Antibiotic susceptibility [28]: R; Antibiotic susceptibility [29]: R; Antibiotic susceptibility [30]: R; Antibiotic susceptibility [31]: R; Antibiotic susceptibility [32]: R; Antibiotic susceptibility [33]: I |
